These results are taken from patent US8530489B2 (Vertex Pharmaceuticals Incorporated, priority 2006, dated 2013).

This experiment has as its target PLK1 (Homo sapiens, UniProt P53350). Put plainly: PLK1 Inhibition Assay I (radioactive-phosphate incorporation). The experiment is classed as biochemical. The conditions noted are these: Ki(app); PLK1 Inhibition Assay I or II (table does not say which). The essentials: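 Ki(app) values came from non-linear regression of initial rates after background subtraction, with phosphopeptide measured by phosphocellulose filter binding and scintillation counting. PLK1 at 2 nM was preincubated with compound (typically from 10 μM, 2-fold dilutions) for 10 min, then run 240 min at 25° C with 350 μM [γ-33P]ATP and 450 μM peptide substrate in HEPES pH 7.5 buffer.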

PLK1, sequence (P53350 whole entry): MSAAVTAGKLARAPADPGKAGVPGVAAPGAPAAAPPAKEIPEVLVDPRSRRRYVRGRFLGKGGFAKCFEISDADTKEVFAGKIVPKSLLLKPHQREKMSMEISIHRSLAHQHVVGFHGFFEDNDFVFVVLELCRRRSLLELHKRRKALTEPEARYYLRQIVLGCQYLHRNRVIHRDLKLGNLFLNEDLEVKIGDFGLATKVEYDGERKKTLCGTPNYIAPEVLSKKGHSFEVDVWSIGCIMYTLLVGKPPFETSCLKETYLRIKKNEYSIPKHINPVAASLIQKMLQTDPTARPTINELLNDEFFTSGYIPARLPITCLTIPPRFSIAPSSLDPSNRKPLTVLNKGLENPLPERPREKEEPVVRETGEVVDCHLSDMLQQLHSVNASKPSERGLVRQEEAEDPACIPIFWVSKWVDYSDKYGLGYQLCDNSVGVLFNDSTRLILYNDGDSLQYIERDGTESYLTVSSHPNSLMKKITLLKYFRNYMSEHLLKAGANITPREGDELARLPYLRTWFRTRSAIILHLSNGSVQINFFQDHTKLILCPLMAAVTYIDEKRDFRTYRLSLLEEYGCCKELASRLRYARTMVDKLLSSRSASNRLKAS

With `C[C@@H](Nc1ncc(C#N)c(-c2c[nH]c3ncc(C(F)(F)F)cc23)n1)[C@H]1CC[C@@H](O)CC1` [Compound I-180, 2-((R)-1-((1s,4S)-4-hydroxycyclohexyl)ethylamino)-4-(5-(trifluoromethyl)-1H-pyrrolo[2,3-b]pyridin-3-yl)pyrimidine-5-carbonitrile], the Ki was below 3 nM. For the compound `CCN(CC)S(=O)(=O)c1ccc(C(C)Nc2ncc(C#N)c(-c3c[nH]c4ncc(C(F)(F)F)cc34)n2)cc1` (centres unmarked) [Compound I-181, 4-(1-(5-cyano-4-(5-(trifluoromethyl)-1H-pyrrolo[2,3-b]pyridin-3-yl)pyrimidin-2-ylamino)ethyl)-N,N-diethylbenzenesulfonamide], the Ki lay in the range of 3 to 40 nM.

In the case of `CCC(Nc1ncc(C#N)c(-c2c[nH]c3ncc(C(F)(F)F)cc23)n1)C1CCN(S(=O)(=O)C(C)C)CC1` (centres unmarked) [Compound I-182, 2-(1-(1-(isopropylsulfonyl)piperidin-4-yl)propylamino)-4-(5-(trifluoromethyl)-1H-pyrrolo[2,3-b]pyridin-3-yl)pyrimidine-5-carbonitrile], the Ki was 3 to 40 nM. To `COCC(=O)N1CCC(C(C)Nc2ncc(C#N)c(-c3c[nH]c4ncc(C(F)(F)F)cc34)n2)CC1` (centres unmarked) [Compound I-183, 2-(1-(1-(2-methoxyacetyl)piperidin-4-yl)ethylamino)-4-(5-(trifluoromethyl)-1H-pyrrolo[2,3-b]pyridin-3-yl)pyrimidine-5-carbonitrile] belongs below 3 nM; to `COCCC(=O)N1CCC(C(C)Nc2ncc(C#N)c(-c3c[nH]c4ncc(C(F)(F)F)cc34)n2)CC1` (centres unmarked) [Compound I-184, 2-(1-(1-(3-methoxypropanoyl)piperidin-4-yl)ethylamino)-4-(5-(trifluoromethyl)-1H-pyrrolo[2,3-b]pyridin-3-yl)pyrimidine-5-carbonitrile], below 3 nM. To `C[C@@H](Nc1ncc(C#N)c(-c2c[nH]c3ncc(C(F)(F)F)cc23)n1)c1ccc(CO)cc1` [Compound I-185, 2-((R)-1-(4-(hydroxymethyl)phenyl)ethylamino)-4-(5-(trifluoromethyl)-1H-pyrrolo[2,3-b]pyridin-3-yl)pyrimidine-5-carbonitrile] belongs below 3 nM; to `C[C@@H](Nc1ncc(C#N)c(-c2c[nH]c3ncc(C(F)(F)F)cc23)n1)c1ccc(C(=O)O)cc1` [Compound I-186, 4-((1R)-1-(5-cyano-4-(5-(trifluoromethyl)-1H-pyrrolo[2,3-b]pyridin-3-yl)pyrimidin-2-ylamino)ethyl)benzoic acid], below 3 nM. To `CCC(=O)N1CCC(C(C)Nc2ncc(C#N)c(-c3c[nH]c4ncc(C(F)(F)F)cc34)n2)CC1` (centres unmarked) [Compound I-187, 2-(1-(1-propionylpiperidin-4-yl)ethylamino)-4-(5-(trifluoromethyl)-1H-pyrrolo[2,3-b]pyridin-3-yl)pyrimidine-5-carbonitrile] belongs below 3 nM; to `CC(Nc1ncc(C#N)c(-c2c[nH]c3ncc(C(F)(F)F)cc23)n1)C1CCN(C(=O)CN)CC1` (centres unmarked) [Compound I-188, 2-(1-(1-(2-aminoacetyl)piperidin-4-yl)ethylamino)-4-(5-(trifluoromethyl)-1H-pyrrolo[2,3-b]pyridin-3-yl)pyrimidine-5-carbonitrile], below 3 nM; to `CNCC(=O)N1CCC(C(C)Nc2ncc(C#N)c(-c3c[nH]c4ncc(C(F)(F)F)cc34)n2)CC1` (centres unmarked) [Compound I-189, 2-(1-(1-(2-(methylamino)acetyl)piperidin-4-yl)ethylamino)-4-(5-(trifluoromethyl)-1H-pyrrolo[2,3-b]pyridin-3-yl)pyrimidine-5-carbonitrile], below 3 nM. Take `C[C@@H](Nc1ncc(C#N)c(-c2c[nH]c3ncc(C(F)(F)F)cc23)n1)c1ccc(S(=O)(=O)N(C)C)cc1` [Compound I-190, 4-((1R)-1-(5-cyano-4-(5-(trifluoromethyl)-1H-pyrrolo[2,3-b]pyridin-3-yl)pyrimidin-2-ylamino)ethyl)-N,N-dimethylbenzenesulfonamide]: the Ki was below 3 nM. As to `CC(Nc1ncc(C#N)c(-c2c[nH]c3ncc(C(F)(F)F)cc23)n1)c1ccc(N2CC(F)(C3CC3)C2)nc1` (centres unmarked) [Compound I-191, 2-(1-(6-(3-cyclopropyl-3-fluoroazetidin-1-yl)pyridin-3-yl)ethylamino)-4-(5-(trifluoromethyl)-1H-pyrrolo[2,3-b]pyridin-3-yl)pyrimidine-5-carbonitrile], the Ki was in the range of 3 to 40 nM. Consider `CC(Nc1ncc(C#N)c(-c2c[nH]c3ncc(C(F)(F)F)cc23)n1)C1CCN(C(=O)CO)CC1` (centres unmarked) [Compound I-192, 2-(1-(1-(2-hydroxyacetyl)piperidin-4-yl)ethylamino)-4-(5-(trifluoromethyl)-1H-pyrrolo[2,3-b]pyridin-3-yl)pyrimidine-5-carbonitrile], for which the Ki was below 3 nM. As for `CC(Nc1ncc(C#N)c(-c2c[nH]c3ncc(C(F)(F)F)cc23)n1)C1CCN(C(=O)CN(C)C)CC1` (centres unmarked) [Compound I-193, 2-(1-(1-(2-(dimethylamino)acetyl)piperidin-4-yl)ethylamino)-4-(5-(trifluoromethyl)-1H-pyrrolo[2,3-b]pyridin-3-yl)pyrimidine-5-carbonitrile], the Ki was below 3 nM. In the case of `CC(Nc1ncc(C#N)c(-c2c[nH]c3ncc(C(F)(F)F)cc23)n1)c1ccc(N2CC(O)(C3CC3)C2)nc1` (centres unmarked) [Compound I-194, 2-(1-(6-(3-cyclopropyl-3-hydroxyazetidin-1-yl)pyridin-3-yl)ethylamino)-4-(5-(trifluoromethyl)-1H-pyrrolo[2,3-b]pyridin-3-yl)pyrimidine-5-carbonitrile] it was 3 to 40 nM; in that of `CC(Nc1ncc(C#N)c(-c2c[nH]c3ncc(C(F)(F)F)cc23)n1)c1ccc(N2CCC(O)(C3CC3)CC2)nc1` (centres unmarked) [Compound I-195, 2-(1-(6-(4-cyclopropyl-4-hydroxypiperidin-1-yl)pyridin-3-yl)ethylamino)-4-(5-(trifluoromethyl)-1H-pyrrolo[2,3-b]pyridin-3-yl)pyrimidine-5-carbonitrile], 3 to 40 nM; in that of `C[C@@H](Nc1ncc(C#N)c(-c2c[nH]c3ncc(C(F)(F)F)cc23)n1)c1ccc(S(N)(=O)=O)cc1` [Compound I-196, 4-((1R)-1-(5-cyano-4-(5-(trifluoromethyl)-1H-pyrrolo[2,3-b]pyridin-3-yl)pyrimidin-2-ylamino)ethyl)benzenesulfonamide], below 3 nM. In the case of `CCC1(O)CCN(c2ccc(C(C)Nc3ncc(C#N)c(-c4c[nH]c5ncc(C(F)(F)F)cc45)n3)cn2)CC1` (centres unmarked) [Compound I-197, 2-(1-(6-(4-ethyl-4-hydroxypiperidin-1-yl)pyridin-3-yl)ethylamino)-4-(5-(trifluoromethyl)-1H-pyrrolo[2,3-b]pyridin-3-yl)pyrimidine-5-carbonitrile] it was 3 to 40 nM. In the case of `CC(Nc1ncc(C#N)c(-c2c[nH]c3ncc(C(F)(F)F)cc23)n1)c1ccc(N2CCC(O)(C(C)C)CC2)nc1` (centres unmarked) [Compound I-198, 2-(1-(6-(4-hydroxy-4-isopropylpiperidin-1-yl)pyridin-3-yl)ethylamino)-4-(5-(trifluoromethyl)-1H-pyrrolo[2,3-b]pyridin-3-yl)pyrimidine-5-carbonitrile] it was 3 to 40 nM; in that of `CC(Nc1ncc(C#N)c(-c2c[nH]c3ncc(C(F)(F)F)cc23)n1)c1ccc(N2CCC(F)CC2)nc1` (centres unmarked) [Compound I-199, 2-(1-(6-(4-fluoropiperidin-1-yl)pyridin-3-yl)ethylamino)-4-(5-(trifluoromethyl)-1H-pyrrolo[2,3-b]pyridin-3-yl)pyrimidine-5-carbonitrile], 3 to 40 nM.
